Legend:
[1] = test system: irs1 cells (XRCC2 deficient, deficient in HR); test: Colony outgrowth assay, irs1 cells; format: cell-based, Chinese hamster; conditions: irs1, defective in XRCC2; FIG. 1
Experimental: (§1) 500 cells suspended in medium were plated onto a Petri dish 4 hours prior to the addition of 3-AB, ISQ or NU1025. ISQ and NU1025 were dissolved in DMSO to a final concentration of 0.2% in treatment medium. 7-12 days later, when colonies could be observed, these colonies were fixed and stained with methylene blue in methanol (4 g/l). Colonies consisting of more than 50 cells were subsequently counted.

[2] = test system: CXR3 cells (irs1SF complemented with XRCC3); test: Colony outgrowth assay, CXR3 cells; format: cell-based, Chinese hamster; conditions: CXR3 versus irs1SF; FIG. 1
Experimental: as §1

[3] = test system: irs1SF cells (XRCC3 deficient, deficient in HR); test: Colony outgrowth assay, irs1SF cells; format: cell-based, Chinese hamster; conditions: defective in XRCC3, FIG. 1
Experimental: as §1

[4] = test system: irs1X2.2 cells (irs1 complemented with XRCC2); test: Colony outgrowth assay, irs1X2.2 cells; format: cell-based, Chinese hamster; conditions: irs1X2.2 versus irs1; FIG. 1
Experimental: as §1

PARP = PARP activity assay by level of free NAD(P)H (WST-8); format: cell-based; conditions: FIG. 7F; hydroxyurea 0.5 mM, thymidine 10 mM
Experimental: A water-soluble tetrazolium salt (5 mM WST-8) was used to monitor the amount of NAD(P)H through its reduction to a yellow coloured formazan dye[43]. 5000 cells were plated in at least triplicate into wells of a 96 well plate and cultured in 100 μl normal growth media for 4 h at 37° C. CK8 buffer (Dojindo Molecular Technology, Gaithersburg, USA), containing WST-8, was then added either with or without treatment with DNA damaging agents at concentrations indicated. Reduction of WST-8 in the presence of NAD(P)H was determined by measuring visible absorbance (OD450) every 30 min. A medium blank was also prepared containing just media and CK8 buffer. Changes in NAD(P)H levels were calculated by comparing the absorbance of wells containing cells treated with DNA damaging agents and those treated with DMSO alone. Alternately relative levels of NAD(P)H in different cells lines were calculated after 4 h incubation in CK8 buffer.

[5] = test system: MDA-MB-231 (mutated p53) breast cancer cells depleted of BRCA2; test: Colony outgrowth of siRNA-treated MDA-MB-231 cells; format: cell-based; conditions: MDA-MB-231, BRCA2 depleted with a mixture of BRCA2 siRNA; FIG. 4
Experimental: 500 cells suspended in medium were plated onto a Petri dish 4 hours prior to the addition of 3-AB, ISQ or NU1025. ISQ and NU1025 were dissolved in DMSO to a final concentration of 0.2% in treatment medium. 7-12 days later, when colonies could be observed, these colonies were fixed and stained with methylene blue in methanol (4 g/l). Colonies consisting of more than 50 cells were subsequently counted. Predesigned BRCA2 SMARTpool and scrambled siRNAs were purchased (Dharmacon, Lafayette, Colo.). 10000 cells seeded onto 6 well plates and left over night before transfected with 100 nM siRNA using Oligofectamine Reagent (Invitrogen) according to manufacturers instructions. Cells were then cultured in normal growth media for 48 h prior to trypsinisation and replating for toxicity assays. Suppression of BRCA2 was confirmed by Western blotting (as described previously) of protein extracts treated with siRNA with an antibody against BRCA2 (Oncogene, Nottingham, UK).

[6] = test system: VC8+B2 cells (functional BRCA2 gene on overexpression vector); test: Colony outgrowth assay, VC8+B2 cells; format: cell-based, Chinese hamster; conditions: FIG. 2
Experimental: as §1

V-C8+B2 cells [7] = test: RAD51 foci immunofluorescence, V-C8+B2 cells; format: cell-based, Chinese hamster; conditions: 24-hour treatment, 10 μM, t-test p<0.05, FIG. 5D
Experimental: (§2) Cells were plated onto coverslips 4 h prior to 24-h treatments as indicated. Following treatments the medium was removed and coverslips rinsed once in PBS at 37° C. and fixed as described elsewhere. The primary antibodies and dilutions used in this study were; rabbit polyclonal anti PAR (Trevigen; 1:500), goat polyclonal anti Rad51 (C-20, Santa Cruz; 1:200) and rabbit polyclonal anti Rad51 (H-92, Santa Cruz; 1:1000). The secondary antibodies were Cy-3-conjugated goat anti-rabbit IgG antibody (Zymed; 1:500), Alexa 555 goat anti-rabbit F(ab′)2IgG antibody (Molecular Probes; 1:500), Alexa 546 donkey anti-goat IgG antibody (Molecular Probes; 1:500) and Alexa 488 donkey anti-rabbit IgG antibody (Molecular Probes; 1:500). Antibodies were diluted in PBS containing 3% bovine serum albumin. DNA was stained with 1 μg/ml To Pro (Molecular Probes). Images were obtained with a Zeiss LSM 510 inverted confocal microscope using planapochromat 63X/NA 1.4 oil immersion objective and excitation wavelengths 488, 546 and 630 nm. Through focus maximum projection images were acquired from optical sections 0.50 μm apart and with a section thickness of 1.0 μm. Images were processed using Adobe PhotoShop (Abacus Inc). At least 300 nuclei were counted on each slide and those containing more than 10 RAD51 foci or sites of PARP activity were classified as positive.

[8] = test system: BRCA2 deficient V-C8 cells; test: RAD51 foci immunofluorescence, V-C8 cells; format: cell-based, Chinese hamster; conditions: 24-hour treatment, 10 μM, FIG. 5D
Experimental: as §2

[9] = test system: VC8#13 cells (functional BRCA2 gene on chromosome 13); test: Colony outgrowth assay, VC8#13 cells; format: cell-based, Chinese hamster; conditions: BRCA2 on chromosome 13 (VC8#13); FIG. 2
Experimental: as §1

V79 cells = test: Pulse-field gel electrophoresis for DSBs, V79 cells; format: cell-based, Chinese hamster; conditions: highly toxic levels of NU1025 (0.1 mM, 24-hour), FIG. 5A
Experimental: (§3) 1.5×10^6 cells were plated onto 100 mm dishes and allowed 4 h for attachment. […] These inserts were incubated as described elsewhere (8) and separated by pulse-field gel electrophoresis for 24 h (BioRad; 120° angle, 60 to 240 s switch time, 4 V/cm). The gel was subsequently stained with ethidium bromide for analysis.

[10] = test system: MCF7 (wild-type p53) breast cancer cells depleted of BRCA2; test: Colony outgrowth of siRNA-treated MCF-7 cells; format: cell-based; conditions: MCF7, BRCA2 depleted with a mixture of BRCA2 siRNA; FIG. 4
Experimental: as §1
Predesigned BRCA2 SMARTpool and scrambled siRNAs were purchased (Dharmacon, Lafayette, Colo.). 10000 cells seeded onto 6 well plates and left over night before transfected with 100 nM siRNA using Oligofectamine Reagent (Invitrogen) according to manufacturers instructions. Cells were then cultured in normal growth media for 48 h prior to trypsinisation and replating for toxicity assays. Suppression of BRCA2 was confirmed by Western blotting (as described previously) of protein extracts treated with siRNA with an antibody against BRCA2 (Oncogene, Nottingham, UK).

V-C8 cells = test: Pulse-field gel electrophoresis for DSBs, V-C8 cells; format: cell-based, Chinese hamster; conditions: highly toxic levels of NU1025 (0.1 mM, 24-hour), FIG. 5A
Experimental: as §3

V-C8+B2 cells [11] = test: Survival on co-treatment with replication inhibitors and NU1025; format: cell-based, Chinese hamster; conditions: co-treatment with NU1025 (10 μM)
Experimental: as §1

VC8 cells = test: Apoptosis experiments (annexin-V/PI flow cytometry); format: cell-based, Chinese hamster; conditions: 72 hours following exposure; FIG. 3
Experimental: 0.25×10^6 cells were plated onto Petri dishes and grown for 4 hours before treatment with NU1025. After 72 hours, cells were trypsinized and resuspended with medium containing any floating cells from that sample. The cells were pelleted by centrifugation and resuspended for apoptosis analysis with FITC-conjugated annexin-V and propidium iodine (PI) (ApoTarget, Biosource International) according to manufacturer's protocol. Samples were analysed by flow cytometry (Becton-Dickenson FACSort, 488 nm laser), and percentage of apoptotic cells was determined by the fraction of live cells (PI-negative) bound with FITC-conjugated annexin-V.

[12] = test system: BRCA2 deficient cells (VC8); test: Colony outgrowth assay, VC8 cells; format: cell-based, Chinese hamster
Experimental: as §1

V79 hamster cells = test: PAR polymer staining (sites of PARP activity); format: cell-based; conditions: V79 cells treated for 24 hours; FIG. 7C
Experimental: as §2

SMILES	sensitivity to the toxic effect (survival) [1]	sensitivity after introduction of functional XRCC3 gene [2]	sensitivity to the toxic effect (survival) [3]	sensitivity after introduction of functional XRCC2 gene [4]	activation of PARP and reduction of NAD(P)H levels (PARP)	number of cells containing sites of PARP activity (V79 hamster cells)	further results
NC(=O)c1cccc(N)c1 [3-AB, 3-aminobenzamide]	very sensitive	corrected	very sensitive	corrected			
Oc1cccc2c(O)nccc12 [ISQ, 1,5-dihydroxyisoquinoline]	very sensitive	corrected	very sensitive	corrected			
COS(C)(=O)=O [MMS, Methylmethane sulphonate]					depletes the NAD(P)H levels		
Cc1nc2c(O)cccc2c(=O)[nH]1 [NU1025, 8-hydroxy-2-methylquinazolin-4-[3H]one]	very sensitive	corrected	very sensitive	corrected			survival [5]: profoundly reduced the survival; sensitivity after introduction of functional BRCA2 gene [6]: corrected; formation of RAD51 foci (V-C8+B2 cells [7]): RAD51 foci were indeed induced; formation of RAD51 foci [8]: unable to form RAD51 foci; sensitivity after introduction of functional BRCA2 gene [9]: corrected; accumulation of DSBs (V79 cells): no DSBs were detectable; survival [10]: profoundly reduced the survival; accumulation of DSBs (V-C8 cells): no DSBs were detectable; sensitivity to hydroxyurea (V-C8+B2 cells [11]; FIG. 7D): enhances the sensitivity; sensitivity to thymidine (V-C8+B2 cells [11]; FIG. 7E): enhances the sensitivity; level of apoptosis (VC8 cells): triggered apoptosis only in VC8 cells; sensitivity to cytotoxicity relative to wild type cells ([12]; BRCA2 deficient cells versus wild type cells): 100 times; sensitivity to the toxic effect (survival) ([12]; VC8 versus wild type V79Z, FIG. 2): very sensitive
NC(=O)NO [hydroxyurea]					much slower	substantial increase	
Cc1cn([C@H]2C[C@H](O)[C@@H](CO)O2)c(=O)[nH]c1=O [thymidine]					much slower	substantial increase	

— patent US8859562B2, “Use of RNAI inhibiting PARP activity for the manufacture of a medicament for the treatment of cancer” (The University of Sheffield, priority 2003, dated 2014)
